Source: patent publication US20250073184A1, “CANNABIGEROQUINONE COMPOUNDS, COMPOSITIONS INCLUDING SUCH COMPOUNDS, AND USES OF SUCH COMPOUNDS AND COMPOSITIONS” (Juva Life, Inc., priority 2021, published 2025)

What was measured:
[1] = biological target: T1, cannabinoid receptor 1 (CNR1) (Homo sapiens, UniProt P21554); test: CB1 receptor agonist assay (cAMP Hunter eXpress, CNR1 CHO-K1 cells); type: cell-based; conditions: agonist mode, Forskolin-stimulated cAMP
T1 construct: host or cells: CHO-K1
Method: (§1) The assays were performed in cAMP Hunter eXpress cells engineered to overexpress naturally Gi/Go-coupled wildtype cannabinoid receptor 1 (CNR1) or cannabinoid receptor 2 (CNR2) in CHO-K1 cell type. In these cells, CB1 and/or […] agonists inhibit production of intracellular cAMP in response to stimulation with Forskolin. cAMP levels are determined using luminogenic detection reagents provided with the Hunter eXpress cAMP detection kit.
(§2) • Assay ready CNR1 CHO-K1 cells were obtained from Eurofins/Discover X, cat #95-0071E2 • Assay ready CNR2 CHO-K1 cells were obtained from Eurofins/Discover X, cat #95-0183E2 • Hunter eXpress cAMP detection kit was also from Discover X. The kit includes all cAMP detection reagents, Forskolin, complete cell plating medium and cell assay buffer.
The Assay-Ready CNR1 CHO-K1 or CNR2 CHO-K1 cells were thawed and re-suspended in pre-warmed Assay Complete plating medium and inoculated into 96 well plate at a density of 30,000 cells in 100 μL. The plates with cells were incubated for 24 h at 37° C. in 5% CO2. […] The cells were stimulated with the Forskolin/compound buffer for 30 min. […] The plate was read on Biotek Synergy Neo2 reader in luminescent mode. […] Relative luminescence units (RLUs) were plotted against compound concentration to determine apparent EC50 values of the agonist compounds.

[2] = biological target: T2, cannabinoid receptor 2 (CNR2) (Homo sapiens, UniProt P34972); test: CB2 receptor agonist assay (cAMP Hunter eXpress, CNR2 CHO-K1 cells); type: cell-based
T2 construct: host or cells: CHO-K1
T2 sequence (P34972 whole entry): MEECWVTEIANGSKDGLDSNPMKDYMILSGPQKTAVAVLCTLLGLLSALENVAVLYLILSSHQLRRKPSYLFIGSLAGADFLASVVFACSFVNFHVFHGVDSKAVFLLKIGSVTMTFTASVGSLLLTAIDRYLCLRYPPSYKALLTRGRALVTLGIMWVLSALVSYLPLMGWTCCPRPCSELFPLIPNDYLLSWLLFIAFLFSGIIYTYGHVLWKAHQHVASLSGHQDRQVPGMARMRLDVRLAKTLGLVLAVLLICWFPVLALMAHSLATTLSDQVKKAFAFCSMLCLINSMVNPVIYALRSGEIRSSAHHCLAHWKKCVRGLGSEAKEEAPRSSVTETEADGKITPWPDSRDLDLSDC
Method: as §1, §2
The Assay-Ready CNR1 CHO-K1 or CNR2 CHO-K1 cells were thawed and re-suspended in pre-warmed Assay Complete plating medium and inoculated into 96 well plate at a density of 30,000 cells in 100 μL. The plates with cells were incubated for 24 h at 37° C. in 5% CO2. […] The cells were stimulated with the Forskolin/compound buffer for 30 min. After stimulation, 15 μL of cAMP antibody reagent and 60 μL of cAMP working detection solution were added to the cells and, the cells were incubated for 1 h at room temperature. After 1 h incubation, 60 μL of cAMP Solution A was added to the wells and the plate was incubated for 3 h at room temperature. The plate was read on Biotek Synergy Neo2 reader in luminescent mode. CB1 and CB2 agonists should reduce cAMP production in response to Forskilin. Relative luminescence units (RLUs) were plotted against compound concentration to determine apparent EC50 values of the agonist compounds.

[3] = system: SK-MEL-28 melanoma cell line; test: SK-MEL-28 cell line toxicity (Cell titer Glo viability); type: cell-based; conditions: SK-MEL-28, 72 h
Method: (§3) Culture medium were purchased from ATCC, USA.
• General cell culture reagents and plastic. • 384-Well Flat white Poly-styrene TC-Treated Microplates (Corning). • 384 well poly-propylene plates (acoustic grade, Labcyte) for compound dilution. • Cell titer Glo luminescent Cell Viability reagent (Cat #G7571, Promega).
(§4) 90 nL DMSO is added to control wells. […] Luminescence was then recorded using Synergy Neo2Multi-mode Reader.

[4] = system: PC3 prostate adenocarcenoma cell line; test: PC3 cell line toxicity (Cell titer Glo viability); type: cell-based; conditions: PC3, 72 h
Method: as §4, §3

[5] = system: HL-60 acute promyelocytic leukemia cell line; test: HL-60 cell line toxicity (Cell titer Glo viability); conditions: HL-60, 72 h
Method: The half maximal inhibition concentration (IC50) for each compound was determined by harvesting cells during the logarithmic growth period and then counting cell number using hemocytometer. […] Then, using a Biomek FX, test articles were serially diluted (10 mM top, 3× dilution intervals) along with a reference inhibitor (1 mM top, 3× dilution intervals) in acoustic grade Labcyte plate. Then, using an acoustic dispenser (Labcyte550), compounds were added as serially diluted to plate with cells: 90 nL of serially diluted compounds per well. 90 nL DMSO is added to control wells. Test plates were incubated for 72 h in the humidified incubator at 37° C. with 5% CO2. 25 μL of reconstituted Cell titer Glo reagent was added to each well. Each test plate was then incubated for 20 min at room temperature. Luminescence was then recorded using Synergy Neo2Multi-mode Reader.
In order to calculate intersect IC50, a dose-response curve was fitted using nonlinear regression model with a sigmoidal dose response.
The formula for calculating surviving rate is shown below, and the intersect IC50 was calculated according to the dose-response curve generated by the software:
The compounds of interest were assessed cell viability in the HL-60 acute promyelocytic leukemia cell line (ATCC® CCL-240). […] Culture medium were purchased from ATCC, USA.

T1 sequence (P21554 whole entry): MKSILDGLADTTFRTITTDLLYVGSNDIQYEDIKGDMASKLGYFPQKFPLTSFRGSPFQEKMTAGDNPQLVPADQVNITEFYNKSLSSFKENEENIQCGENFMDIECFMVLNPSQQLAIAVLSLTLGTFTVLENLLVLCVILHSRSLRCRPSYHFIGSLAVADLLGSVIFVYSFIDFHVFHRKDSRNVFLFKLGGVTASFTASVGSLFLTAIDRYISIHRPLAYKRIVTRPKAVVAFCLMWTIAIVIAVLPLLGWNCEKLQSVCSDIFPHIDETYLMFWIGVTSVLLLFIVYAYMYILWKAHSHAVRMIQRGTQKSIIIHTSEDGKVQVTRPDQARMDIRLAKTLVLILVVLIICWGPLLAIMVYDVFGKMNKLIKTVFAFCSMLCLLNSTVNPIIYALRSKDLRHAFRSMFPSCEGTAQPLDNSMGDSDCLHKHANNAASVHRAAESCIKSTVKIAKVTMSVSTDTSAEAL

`CCCCCc1cc(O)c2c(c1)OC(C)(C)C1CCC(CO)=CC21` (stereo not drawn) [11-hydroxy-THC] was tested, and the IC50 [1] was 1 nM, the IC50 ([2]; agonist mode, Forskolin-stimulated cAMP, CNR2 CHO-K1 cells) was 51 nM and the “Selectivity for CB2 over CB1 (fold)” value ([2]; ratio of agonist IC50 values) was 0.02 fold.

In the case of `CN[C@@H]1C[C@H]2O[C@@](C)([C@@H]1OC)n1c3ccccc3c3c4c(c5c6ccccc6n2c5c31)C(=O)NC4` [Staurosporine, staurosporine, reference compound], the IC50 ([3]; Homo sapiens) is reported as about 210 nM, the “Cell Viability (%)” value ([3]; 0.041 uM) is reported as 70.0% and the “Cell Viability (%)” value ([3]; 0.12 uM) is reported as 53.9%. The “Cell Viability (%)” value ([3]; 0.37 uM) was 41.1%, the “Cell Viability (%)” value ([3]; 1.1 uM) was 33.0% and the “Cell Viability (%)” value ([3]; 3.3 uM) was 17.3%. The “Cell Viability (%)” value ([3]; 10 uM) was 8.55%, the “Cell Viability (%)” value ([3]; 30 uM) was 8.85% and the IC50 ([4]; Homo sapiens, PC-3) was about 4 nM. For the same compound, the “Cell Viability (%)” value ([4]; 0.0015 uM) was 67.1%, the “Cell Viability (%)” value ([4]; 0.0046 uM) was 43.2% and the “Cell Viability (%)” value ([4]; 0.014 uM) was 34.5%. For the same compound, the “Cell Viability (%)” value ([4]; 0.041 uM) was 12.7%, the “Cell Viability (%)” value ([4]; 0.12 uM) was 10.3% and the “Cell Viability (%)” value ([4]; 0.37 uM) was 9.5%. The “Cell Viability (%)” value ([4]; 1.1 uM) was 8.4%, the “Cell Viability (%)” value ([4]; 3.3 uM) was 8.1% and the “Cell Viability (%)” value ([4]; 10 uM) was 6.8%. For the same compound, the “Cell Viability (%)” value ([4]; 30 uM) was 7.1%, the “Cell Viability (%)” value ([5]; 0.014 uM) was 66.6% and the “Cell Viability (%)” value ([5]; 0.041 uM) was 36.3%. For the same compound, the “Cell Viability (%)” value ([5]; 0.12 uM) was 27.7%, the “Cell Viability (%)” value ([5]; 0.37 uM) was 18.7% and the “Cell Viability (%)” value ([5]; 1.1 uM) was 13.9%. For the same compound, the “Cell Viability (%)” value ([5]; 3.3 uM) was 11.7%, the “Cell Viability (%)” value ([5]; 10 uM) was 10.4% and the “Cell Viability (%)” value ([5]; 30 uM) was 9.6%.
